Data: patent US20030129189A1, “Tumor necrosis factor-gamma” (priority 1994, published 2003)

Key:
[1] = test system: NRK-54E; experiment: TNF-gamma activity on NRK-54E cells; format: cell-based; set-up: key: The numbers of “+” indicate the relative level of activities.; ++: The numbers of “+” indicate the relative level of activities.; +++: The numbers of “+” indicate the relative level of activities.; “−” indicates no detected activity at the concentration range tested; details: rat kidney epithelial-like
[2] = test system: I-kappaBa in U-937 cells; experiment: I-kappaBa degradation (Western blot); format: cell-based; details: 0.1-1.0 μg/ml, 12 hours
Procedure: These experiments were elaborated by determining a degradation profile for I-kappaBa in U-937 cells in response to treatment with TNF-gamma. A time course of I-kappaBa degradation was determined by Western blot analysis, a technique that is well-known by one of ordinary skill in the art and has been described by Singh and Aggarwal (J. Biol. Chem. 270:24995-25000 (1995)).

[3] = test system: WEHI 164; experiment: TNF-gamma activity on WEHI 164 cells (MTS cytotoxicity/proliferation, morphology); format: cell-based, mouse; set-up: key to Proliferation / Differentiation / Adhesion: The numbers of “+” indicate the relative level of activities.; ++: The numbers of “+” indicate the relative level of activities.; +++: The numbers of “+” indicate the relative level of activities.; “−” indicates no detected activity at the concentration range tested
Procedure: The adherent target cells were prepared from confluent cultures by trypsinization in PBS, and non-adherent target cells were harvested from stationary cultures and washed once with medium. Target cells were suspended at 3×10^5 cells/ml in medium containing 10% FCS. 0.1 ml aliquots were dispensed into 96-well flat-bottomed microtiter plates containing 0.1 ml serially diluted test samples of cells (WEHI 164 and L929). Incubation was continued for 70 hours. TNF-alpha, TNF-beta and bacterially-produced TNF-gamma were added at a 0.5 μg/ml concentration. The cytotoxicity and proliferation activity was quantified using an MTS assay performed by the addition of 20 μl of MTS and phenazine methosulfate (PMS) solution to each well. After a three hour incubation, the OD at 492 nm was measured by an ELISA plate reader. The OD492 is proportional to the number of viable cells in the wells. The percent of cytotoxicity was calculated as follows: […]. The photographs were taken after 72 hours.
In the graph of FIG. 7B, the assay was performed as described above, however, increasing amounts of TNF-alpha, TNF-beta and TNF-gamma were added to the cultures.

[4] = test system: 293; experiment: TNF-gamma activity on 293 cells; format: cell-based; set-up: key: The numbers of “+” indicate the relative level of activities.; ++: The numbers of “+” indicate the relative level of activities.; +++: The numbers of “+” indicate the relative level of activities.; “−” indicates no detected activity at the concentration range tested; details: 293, human embryonal kidney

With “TNF-gamma: new member of the tumor necrosis factor family; the term refers to TNF-gamma-alpha and/or TNF-gamma-beta” the Adhesion [1] was “−−”, the Differentiation [1] was “−−” and the Proliferation [1] was “−”. The I-kappaBa degradation [2] was “completely degraded”, the “inhibition of WEHI 164 cell growth” value ([3]; MTS assay, increasing amounts added (FIG. 7B)) was “dose-dependent inhibitor of the growth” and the “morphology change (killed cells)” value ([3]; WEHI 164, 0.5 μg/ml, photographs after 72 hours (FIG. 7A)) was “induced a morphology change which appeared as dark round cells (indicating killed cells)”. The Adhesion ([3]; WEHI 164, mouse fibrosarcoma) was “−−”, the Differentiation ([3]; WEHI 164, mouse fibrosarcoma) was “−−” and the Proliferation ([3]; WEHI 164, mouse fibrosarcoma) was “−”. The Adhesion [4] was “−−”, the Differentiation [4] was “−−” and the Proliferation [4] was “++”.
